According to PubChem BioAssay (NCI):
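Assay format: 96-well plates, 48-hour exposure. The concentration for 50% growth inhibition is given as GI50. The concentration for full growth arrest is given as TGI.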

Experiments:
Experiment in all cases: NCI tumour cell line growth inhibition, 48 h
HL-60(TB) leukemia = system: HL-60(TB) leukemia
SF-295 CNS = system: SF-295 CNS
U251 CNS = system: U251 CNS
EKVX NSCLC = system: EKVX NSCLC
MOLT-4 leukemia = system: MOLT-4 leukemia
HCT-15 colon = system: HCT-15 colon
RPMI-8226 leukemia = system: RPMI-8226 leukemia
CAKI-1 renal = system: CAKI-1 renal
OVCAR-4 ovarian = system: OVCAR-4 ovarian
MALME-3M melanoma = system: MALME-3M melanoma
HS 578T breast = system: HS 578T breast
DU-145 prostate = system: DU-145 prostate
A498 renal = system: A498 renal
NCI/ADR-RES ovarian = system: NCI/ADR-RES ovarian
KM12 colon = system: KM12 colon
MDA-MB-435 = system: MDA-MB-435
M14 melanoma = system: M14 melanoma
UACC-257 melanoma = system: UACC-257 melanoma
OVCAR-8 ovarian = system: OVCAR-8 ovarian
RXF 393 renal = system: RXF 393 renal
NCI-H226 lung = system: NCI-H226 lung
HT29 colon = system: HT29 colon
ACHN renal = system: ACHN renal
SK-MEL-28 melanoma = system: SK-MEL-28 melanoma
HCT-116 colon = system: HCT-116 colon
NCI-H23 lung = system: NCI-H23 lung
HCC-2998 colon = system: HCC-2998 colon
HOP-62 NSCLC = system: HOP-62 NSCLC
A549 NSCLC = system: A549 NSCLC
SF-539 CNS = system: SF-539 CNS
TK-10 renal = system: TK-10 renal
SK-OV-3 ovarian = system: SK-OV-3 ovarian
SR leukemia = system: SR leukemia
SN12C renal = system: SN12C renal
SNB-75 CNS = system: SNB-75 CNS
COLO 205 colon = system: COLO 205 colon
IGROV1 ovarian = system: IGROV1 ovarian
BT-549 breast = system: BT-549 breast
MCF7 breast = system: MCF7 breast
SF-268 CNS = system: SF-268 CNS
K-562 leukemia = system: K-562 leukemia
SK-MEL-5 melanoma = system: SK-MEL-5 melanoma
PC-3 prostate = system: PC-3 prostate
CCRF-CEM leukemia = system: CCRF-CEM leukemia
T-47D breast = system: T-47D breast
NCI-H522 lung = system: NCI-H522 lung
SK-MEL-2 melanoma = system: SK-MEL-2 melanoma
NCI-H460 lung = system: NCI-H460 lung
SNB-19 CNS = system: SNB-19 CNS
786-0 renal = system: 786-0 renal
MDA-MB-231 breast = system: MDA-MB-231 breast
UACC-62 melanoma = system: UACC-62 melanoma
LOX IMVI melanoma = system: LOX IMVI melanoma
OVCAR-5 ovarian = system: OVCAR-5 ovarian
OVCAR-3 ovarian = system: OVCAR-3 ovarian
UO-31 renal = system: UO-31 renal
SW-620 colon = system: SW-620 colon
HOP-92 NSCLC = system: HOP-92 NSCLC

## COCCN1CCN(Cc2ccc(-c3n[nH]c4c3C(=O)c3c(NC(=O)NN5CCOCC5)cccc3-4)cc2)CC1
HL-60(TB) leukemia
  GI50: 0.00888 µM
  TGI: 0.0453 µM
SF-295 CNS
  GI50: 0.0345 µM
  TGI: > 10 µM
U251 CNS
  GI50: 0.0204 µM
EKVX NSCLC
  GI50: 0.0348 µM
MOLT-4 leukemia
  GI50: 0.0212 µM
  TGI: 0.228 µM
HCT-15 colon
  GI50: 0.117 µM
  TGI: 2 µM
RPMI-8226 leukemia
  GI50: 0.0288 µM
  TGI: 0.0833 µM
CAKI-1 renal
  GI50: 0.0277 µM
  TGI: > 10 µM
OVCAR-4 ovarian
  GI50: 0.0322 µM
  TGI: 0.932 µM
MALME-3M melanoma
  GI50: 0.0705 µM
HS 578T breast
  GI50: 0.0293 µM
  TGI: 1.22 µM
DU-145 prostate
  GI50: 0.0267 µM
A498 renal
  GI50: 0.0292 µM
  TGI: 0.141 µM
NCI/ADR-RES ovarian
  GI50: 0.713 µM
  TGI: > 10 µM
KM12 colon
  GI50: 0.0278 µM
  TGI: 0.572 µM
MDA-MB-435
  GI50: 0.0227 µM
  TGI: 0.424 µM
M14 melanoma
  GI50: 0.0296 µM
  TGI: 0.38 µM
UACC-257 melanoma
  GI50: 0.0336 µM
  TGI: 0.281 µM
OVCAR-8 ovarian
  GI50: 0.0309 µM
RXF 393 renal
  GI50: 0.0189 µM
  TGI: 0.0458 µM
NCI-H226 lung
  GI50: 0.0329 µM
  TGI: > 2.46 µM
HT29 colon
  GI50: 0.0347 µM
  TGI: 0.299 µM
ACHN renal
  GI50: 0.0512 µM
  TGI: > 10 µM
SK-MEL-28 melanoma
  GI50: 0.0246 µM
  TGI: 0.471 µM
HCT-116 colon
  GI50: 0.00897 µM
  TGI: 1.14 µM
NCI-H23 lung
  GI50: 0.0227 µM
  TGI: 0.129 µM
HCC-2998 colon
  GI50: 0.0262 µM
  TGI: 0.274 µM
HOP-62 NSCLC
  GI50: 0.0324 µM
  TGI: 2.94 µM
A549 NSCLC
  GI50: 0.0289 µM
  TGI: 0.214 µM
SF-539 CNS
  GI50: 0.029 µM
  TGI: 0.086 µM
TK-10 renal
  GI50: 0.0199 µM
  TGI: 0.422 µM
SK-OV-3 ovarian
  GI50: 0.0457 µM
  TGI: > 9.41 µM
SR leukemia
  GI50: 0.00985 µM
  TGI: 0.0599 µM
SN12C renal
  GI50: 0.0307 µM
  TGI: > 10 µM
SNB-75 CNS
  GI50: 0.0214 µM
  TGI: 0.071 µM
COLO 205 colon
  GI50: 0.0151 µM
  TGI: 0.0474 µM
IGROV1 ovarian
  GI50: 0.0226 µM
  TGI: 1.19 µM
BT-549 breast
  GI50: 0.0308 µM
  TGI: 0.209 µM
MCF7 breast
  GI50: 0.00766 µM
  TGI: > 5.52 µM
SF-268 CNS
  GI50: 0.0318 µM
K-562 leukemia
  GI50: 0.032 µM
  TGI: > 10 µM
SK-MEL-5 melanoma
  GI50: 0.0269 µM
PC-3 prostate
  GI50: 0.023 µM
  TGI: > 3.86 µM
CCRF-CEM leukemia
  GI50: 0.0211 µM
T-47D breast
  GI50: 0.0216 µM
NCI-H522 lung
  GI50: 0.0194 µM
  TGI: 0.0736 µM
SK-MEL-2 melanoma
  GI50: 0.0212 µM
  TGI: 0.0556 µM
NCI-H460 lung
  GI50: 0.0274 µM
  TGI: 0.623 µM
SNB-19 CNS
  GI50: 0.0298 µM
  TGI: > 10 µM
786-0 renal
  GI50: 0.0336 µM
  TGI: > 10 µM
MDA-MB-231 breast
  GI50: 0.0194 µM
  TGI: 0.584 µM
UACC-62 melanoma
  GI50: 0.0145 µM
  TGI: 0.0462 µM
LOX IMVI melanoma
  GI50: 0.0185 µM
  TGI: 0.12 µM
OVCAR-5 ovarian
  GI50: 0.0212 µM
  TGI: > 4.7 µM
OVCAR-3 ovarian
  GI50: 0.0242 µM
UO-31 renal
  GI50: 0.0916 µM
  TGI: 9.36 µM
SW-620 colon
  GI50: 0.0242 µM
  TGI: > 6.22 µM

## C/C=C/[C@H]1O[C@@H]2C(=C[C@H]1O)C(=O)O[C@H]2C
HL-60(TB) leukemia
  GI50: 35.7 µM
  TGI: > 100 µM
SF-295 CNS
  GI50: > 82.1 µM
  TGI: > 100 µM
U251 CNS
  GI50: 18.4 µM
  TGI: 36.8 µM
EKVX NSCLC
  GI50: 13.4 µM
  TGI: 30.8 µM
MOLT-4 leukemia
  GI50: 2.77 µM
  TGI: 10.5 µM
HCT-15 colon
  GI50: 15.7 µM
  TGI: 34.7 µM
RPMI-8226 leukemia
  GI50: 2.74 µM
  TGI: 8.85 µM
CAKI-1 renal
  GI50: 5.3 µM
  TGI: 17.1 µM
OVCAR-4 ovarian
  GI50: 12.3 µM
  TGI: 33.3 µM
MALME-3M melanoma
  GI50: 7.59 µM
  TGI: 24.2 µM
HS 578T breast
  GI50: 23.3 µM
  TGI: 49.8 µM
DU-145 prostate
  GI50: 5.76 µM
  TGI: 21.4 µM
NCI/ADR-RES ovarian
  GI50: 26 µM
  TGI: > 57 µM
KM12 colon
  GI50: 33.3 µM
  TGI: > 78 µM
MDA-MB-435
  GI50: 21.9 µM
  TGI: 43.5 µM
M14 melanoma
  GI50: 14.7 µM
  TGI: 30.6 µM
UACC-257 melanoma
  GI50: 21.7 µM
  TGI: 43.7 µM
OVCAR-8 ovarian
  GI50: 24.8 µM
  TGI: > 56.8 µM
RXF 393 renal
  GI50: 18.9 µM
  TGI: 67.7 µM
NCI-H226 lung
  GI50: 18.4 µM
  TGI: 48.1 µM
HT29 colon
  GI50: 2.19 µM
  TGI: 27.4 µM
ACHN renal
  GI50: 7.71 µM
  TGI: 22.9 µM
SK-MEL-28 melanoma
  GI50: 0.786 µM
  TGI: 12.1 µM
HCT-116 colon
  GI50: 4.19 µM
  TGI: 16.7 µM
NCI-H23 lung
  GI50: 16.4 µM
  TGI: 44.2 µM
HCC-2998 colon
  GI50: 27.9 µM
  TGI: 55.9 µM
HOP-62 NSCLC
  GI50: 23.4 µM
  TGI: 48.4 µM
A549 NSCLC
  GI50: 19 µM
  TGI: 42.3 µM
SF-539 CNS
  TGI: 3.38 µM
TK-10 renal
  GI50: 14.9 µM
  TGI: 33 µM
SK-OV-3 ovarian
  GI50: > 50.2 µM
  TGI: > 66.7 µM
SR leukemia
  GI50: 7.29 µM
  TGI: > 100 µM
SN12C renal
  GI50: 16.6 µM
  TGI: 33.6 µM
SNB-75 CNS
  GI50: 1.23 µM
  TGI: 26.4 µM
COLO 205 colon
  GI50: 4.02 µM
  TGI: > 32.1 µM
IGROV1 ovarian
  GI50: 17.1 µM
  TGI: > 59.9 µM
BT-549 breast
  GI50: 10.5 µM
  TGI: 22.5 µM
MCF7 breast
  GI50: 31.2 µM
  TGI: 98 µM
HOP-92 NSCLC
  GI50: 1.55 µM
  TGI: 22.1 µM
SF-268 CNS
  GI50: 30.1 µM
  TGI: > 95 µM
K-562 leukemia
  GI50: 7.55 µM
  TGI: > 33.8 µM
SK-MEL-5 melanoma
  GI50: 9.89 µM
  TGI: 23.3 µM
PC-3 prostate
  GI50: 14.8 µM
  TGI: 30.8 µM
T-47D breast
  GI50: 7.34 µM
  TGI: 25.5 µM
NCI-H522 lung
  GI50: 5.02 µM
  TGI: > 42.9 µM
SK-MEL-2 melanoma
  GI50: 37.8 µM
  TGI: > 100 µM
NCI-H460 lung
  GI50: > 92 µM
  TGI: > 100 µM
SNB-19 CNS
  GI50: 35.6 µM
  TGI: > 54.6 µM
786-0 renal
  GI50: 13.8 µM
  TGI: 28.7 µM
MDA-MB-231 breast
  GI50: 17.3 µM
  TGI: 34.2 µM
UACC-62 melanoma
  GI50: 17.6 µM
  TGI: 33.5 µM
LOX IMVI melanoma
  GI50: 15 µM
  TGI: 31.5 µM
OVCAR-5 ovarian
  GI50: 23.2 µM
  TGI: 45.8 µM
OVCAR-3 ovarian
  GI50: 18 µM
  TGI: 39.2 µM
UO-31 renal
  GI50: 7.51 µM
  TGI: > 54.4 µM
SW-620 colon
  GI50: 3.19 µM
  TGI: 14.2 µM
